Data on eight molecules can be found in patent publication US20250099407A1, “2-AMINO BENZOPHENONE DERIVATIVES FOR TARGETED FERROPTOSIS INDUCTION IN CANCER THERAPY” (INDIAN INSTITUTE OF TECHNOLOGY KANPUR, priority 2023, published 2025).

Assay [1] concerns Huh-7 cells. Put plainly: Combination cell viability experiments with thiols, ferroptosis modulators and cell death inhibitors in Huh-7 cells. It counts as cell-based. The following applies: combination with GSH, NAC, BSO, Fer-1, deferoxamine, RSL3, FIN56, Erastin, QVD-OPh, necrostatin-1; Huh-7 and 4T1. How it is done:
FIG. 14 depicts a combination experiment indicates the involvement of thiol modulation by IITK3001/IITK3002 on the viability of Huh-7 and 4T1 cells, in accordance with an embodiment of the present invention. The viability of screened cancer cells was recorded using a luminescence-based CellTiter-Glo® assay for the ATP quantification. The screening concentration of (a) IITK3001 and (b) IITK3002 ranged from 10 uM to 4.5 nM with an 8-point-3-fold dilution series in DMEM medium (>0.1% DMSO as control). For combination experiments, 500 μM of NAC or glutathione and 25 μM of BSO were used. Each experiment was conducted in more than two biological replicates with three technical replicates. The error bar is a representation of standard deviation among the technical replicates.
(§1) FIG. 16 depicts ferroptosis induction as a cell death mechanism is established for IITK3001 using combination experiments with ferroptosis inducers and inhibitors, in accordance with an embodiment of the present invention. The screening concentration of (a) IITK3001 and (b) IITK3002 ranged from 10 μM to 4.5 nM with an 8-point-3-fold dilution series in DMEM medium (>0.1% DMSO as control). For combination experiments, Ferrostain-1 (10 μM),Deferoxamine (3 μM), RSL3 (10 nM), FIN56 (30 nM), glutamine (0.5 mM), glutamic acid (0.5 mM), Erastin (0.5 μM) were used. Each experiment was conducted in more than two biological replicates with three technical replicates. The error bar is a representation of standard deviation among the technical replicates.
as §1, with “18” for “16”, “IITK3002” for “IITK3001”, “of” for “of (a) IITK3001 and (b)”, “μM), Deferoxamine” for “μM),Deferoxamine”
FIG. 20 depicts combining apoptosis and necroptosis inhibitors ruled out the possibility of respective cell death mechanisms upon treatment with IITK3001 or IITK3002 in Huh-7 and 4T1 cells, in accordance with an embodiment of the present invention. The screening concentration of IITK3001/IITK3002 ranged from 10 μM to 4.5 nM with an 8-point-3-fold dilution series in DMEM medium (>0.1% DMSO as control). For combination experiments, QVD-OPh and Necrsotatin-1 (10 μM) were used. Each experiment was conducted in more than two biological replicates with three technical replicates. The error bar is a representation of standard deviation among the technical replicates.
FIG. 22 depicts ferroptosis induction was established for IITK3003 using combination experiments in Huh-7 cells, in accordance with an embodiment of the present invention. The screening concentration of IITK3002 ranged from 10 uM to 4.5 nM with an 8-point-3-fold dilution series in DMEM medium (>0.1% DMSO as control). For combination experiments, Ferrostain-1 ([…]), Deferoxamine (3 μM), RSL3 (10 nM), FIN56 (30 nM), glutamine (0.5 mM), glutamic acid (0.5 mM), Erastin (0.5 μM) were used. Each experiment was conducted in more than two biological replicates with three technical replicates. The error bar is a representation of standard deviation among the technical replicates.
FIG. 24 depicts ferroptosis induction was established for IITK3004 using combination experiments in Huh-7 cells, in accordance with an embodiment of the present invention. The screening concentration of the molecules (a) IITK3001 and (b) IITK3002 ranged from 10 μM to 4.5 nM with a 8-point-3-fold dilution series. […]

In a further assay the test system is PC3. Kind of assay: Cell viability, CellTiter-Glo assay, PC3. It counts as cell-based. As to conditions: Homo sapiens, PC-3, PC3, cell viability. How it is done: (§2) The viability of screened cancer cells was recorded using a luminescence-based CellTiter-Glo® assay for the ATP quantification. The screening concentration of the molecule ranged from 100/10 μM to 45/4.5 nM with an 8-point-3-fold dilution series in DMEM media (>0.1% DMSO as control). Each experiment was conducted in more than two biological replicates with three technical replicates. The error bar is a representation of standard deviation among the technical replicates.
(§3) The viability of screened cancer cells was recorded using a luminescence-based CellTiter-Glo® assay for the ATP quantification. The screening concentration of IITK3002 ranged from 10 μM to 4.5 nM with an 8-point-3-fold dilution series in DMEM media (>0.1% DMSO as control). Each experiment was conducted in more than two biological replicates with three technical replicates. The error bar is a representation of standard deviation among the technical replicates.
(§4) a. […] In parallel, we have also synthesized the bromoacetamide (IITK3002) version of the lead molecules which is slightly more reactive with thiol nucleophiles when compared to chlorooacetamide warheads as depicted in FIG. 13. […] In addition, we also evaluated the molecules' antiproliferative potency against a panel of twelve different cancer phenotypes. The set of cancer cell lines included liver, breast, colon, myeloma, bone, blood, skin, brain and prostate lineages (FIG. 2, 3, Table 1).
For orientation: In ATP-based viability assays light output follows the ATP content of the culture.

In another assay the test system is U2OS. Kind of assay: Cell viability, CellTiter-Glo assay, U2OS. As to conditions: Homo sapiens. It counts as cell-based. How it is done: as §2, §3, §4
A further assay concerns 22Rv1. Put plainly: Cell viability, CellTiter-Glo assay, 22Rv1. As to conditions: Homo sapiens, 22Rv1, 22Rv1, cell viability. It counts as cell-based. How it is done:
as §2, §3, §4

Assay [2] relates to Huh-7 cells. Kind of assay: Cell viability, luminescence-based CellTiter-Glo assay, Huh-7 cells. The following applies: Homo sapiens, Huh-7, Huh-7 cells, cell viability; read-out: EC50 Huh-7. How it is done:
The viability of Huh-7 cells was recorded using a luminescence-based CellTiter-Glo® assay. The screening concentration of the molecules were 10 μM with or without Fer-1 (10 μM) in DMEM media (>0.1% DMSO as control).
Ferroptosis is a unique form of cell death mechanism mediated by the accumulation of lipid peroxides in cells which is distinct from healthy cells' apoptosis, a programmed […] route. We aimed to exploit the induction of ferroptosis in cancer cells using covalent small molecules as a potential strategy for cancer therapeutic development. […] We used various amide bond formation chemistry to construct the library members and these molecules are well characterized by various spectroscopic and mass spectrometry techniques. Once confirmed, these thiol reactive library members were screened in a cancer cell viability assay in combination with ferrostatin-1 (Fer-1), a ferroptosis inhibitor as depicted in FIG. 11. […] We have screened a total of ˜50 electrophilic small molecules to prevent the proliferation of hepatocellular carcinoma (Huh-7 cells) in combination with and without Fer-1. From our initial screening, we identified haloacetamides of 2-aminoalkylbenzophenone as potential ferroptosis inducers as depicted in FIG. 11.
as §2
The viability of screened cancer cells was recorded using a luminescence-based CellTiter-Glo® assay for the ATP quantification. The screening concentration of IITK3002 ranged from 10 μM to 4.5 nM with an 8-point-3-fold dilution series in DMEM media (>0.1% DMSO as control). Each experiment was conducted in more than two biological replicates with three technical replicates. The error bar is a representation of standard deviation among the technical replicates. […]
a. Electrophilic Warhead Optimization: Once we identified 2-benzoylphenyl-a-haloacetamide as the lead scaffold, we have investigated the structure-activity-relationship analysis to precisely capture the effect of various chemical handles of the scaffold and use the knowledge to improve the overall potency and selectivity of this molecule to prevent cancer cell proliferation. First, we changed the haloacetamide electrophilic unit with various other electrophiles with a characteristic high, moderate, and weak reactivity with thiols when compared to chloroacetamide. Therefore, we opted vinylsulfonamide (highly reactivity), acrylamide (moderate reactivity), and phenoxyacetamides (weak reactivity warheads) for incorporation in the place of haloacetamide warhead of the top hit scaffold. Once synthesized, these molecules were evaluated to assess their antiproliferative potency against Huh-7 cells (Table 2). As expected, the introduction of weakly reactive electrophilic warheads, phenoxyactamides, completely lost the activity against Huh-7 cells. […] Perhaps, the secondary interactions of the electrophilic warhead with the target proteins might play additional roles. Therefore, we shifted our focus to optimize the rest of the core scaffold for further SAR analysis. b. Role of N-Substitutions: Next, we synthesized the NH-derivative of haloacetamides to capture the importance of N-alkylation on the activity of our hit molecule. […] Perhaps the hydrogen bonding induced planarity around the warhead influences the molecules' weakened potency. Conversely, the additional flexibility in the lead molecule (tertiary amide) might contribute to the strong antiproliferative activity of the hit molecule. […]

Another assay deals with A549. Kind of assay: Cell viability, A549. The following applies: Homo sapiens. It counts as cell-based.

Turning to `C#CCN(C(=O)CBr)c1ccccc1C(=O)c1ccccc1` [IITK3004, N-(2-benzoylphenyl)-2-bromo-N-(prop-2-yn-1-yl)acetamide], in the assay with Huh-7 cells [1], the “cell death mechanism from combination experiments” value is given as “exceptionally selective ferroptosis inducers”. Besides, the EC50 (in general, the concentration giving half of the maximal effect) with PC3 was determined as 0.13 µM; with U2OS, 0.37 µM; in the assay on 22Rv1 it was 0.12 µM; in the assay on Huh-7 cells [2], 0.00464 µM.

For the molecule `CC(C)N(C(=O)CCl)c1ccccc1C(=O)c1ccccc1` [IITK3028, N-(2-benzoylphenyl)-2-chloro-N-isopropylacetamide], the EC50 was above 20 µM in the assay on PC3; above 20 µM with A549; above 20 µM in the assay on U2OS; above 20 µM in the assay on 22Rv1; 19.6 µM in the assay on Huh-7 cells [2].

On to `C#CCN(C(=O)COc1ccccc1)c1ccccc1C(=O)c1ccccc1` [IITK3029, N-(2-benzoylphenyl)-2-phenoxy-N-(prop-2-yn-1-yl)acetamide], for which the EC50 with PC3, in the assay with A549, in the assay with U2OS, with 22Rv1 and with Huh-7 cells [2] was above 20 µM each time.

With `C#CCN(C(=O)COc1ccc(F)cc1)c1ccccc1C(=O)c1ccccc1` [IITK3030, N-(2-benzoylphenyl)-2-(4-fluorophenoxy)-N-(prop-2-yn-1-yl)acetamide], the EC50 in the assay with PC3 is above 20 µM; with A549, above 20 µM; in the assay on U2OS, above 20 µM; in the assay with 22Rv1, above 20 µM; in the assay on Huh-7 cells [2], above 100 µM.

`C#CCN(C(=O)COc1ccc(Br)cc1)c1ccccc1C(=O)c1ccccc1` [IITK3033, N-(2-benzoylphenyl)-2-(4-bromophenoxy)-N-(prop-2-yn-1-yl)acetamide]: the EC50 with PC3, with A549, with U2OS, in the assay with 22Rv1 and in the assay on Huh-7 cells [2] was above 20 µM each time.

In the case of `O=C(c1ccccc1)c1ccccc1N(Cc1ccccc1)C(=O)COc1ccccc1` [IITK3036, N-(2-benzoylphenyl)-N-benzyl-2-phenoxyacetamide], the EC50 in the assay on PC3, in the assay on A549, in the assay with U2OS, in the assay with 22Rv1 and in the assay with Huh-7 cells [2] was above 20 µM throughout.

As to `O=C(c1ccccc1)c1ccccc1N(Cc1ccccc1)C(=O)COc1ccc(F)cc1` [IITK3037, N-(2-benzoylphenyl)-N-benzyl-2-(4-fluorophenoxy)acetamide], the EC50 in the assay with PC3, with A549, in the assay with U2OS, in the assay with 22Rv1 and in the assay with Huh-7 cells [2] was above 20 µM each time.

For `CC(C)(C)c1ccc(OCC(=O)N(Cc2ccccc2)c2ccccc2C(=O)c2ccccc2)cc1` [IITK3038, N-(2-benzoylphenyl)-N-benzyl-2-(4-(tert-butyl)phenoxy)acetamide], the EC50 in the assay with PC3 is above 20 µM; with A549 it was above 20 µM; with U2OS, above 20 µM; in the assay on 22Rv1, above 20 µM; with Huh-7 cells [2], above 100 µM.
